Molecular target: T1, DgcZ (Escherichia coli, UniProt P31129)
T1 construct: CZB domain (DgcZ-CZB, strain K12)
Assay: cysteine sulfenic acid formation on purified domain, dimedone trapping and immunoblot
Assay type: binding

T1 sequence (P31129 2-127): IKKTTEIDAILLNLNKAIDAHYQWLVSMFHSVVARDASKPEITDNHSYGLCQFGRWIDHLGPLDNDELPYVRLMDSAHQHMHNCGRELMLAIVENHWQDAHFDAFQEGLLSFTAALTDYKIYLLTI

With OCl [HOCl] the “cysteine sulfenic acid formation on purified domain, dimedone trapping and immun” value was “We found them to be similarly reactive toward HOCl as TlpD”.

Reference: publication PMC6715182, “Helicobacter pylori senses bleach (HOCl) as a chemoattractant using a cytosolic chemoreceptor” (PLoS Biology, 2019)
